Activity calls are given as the source filed them.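 How the source made its calls: active means over 50% breakup of the Hsp90 and CDC37 protein complex, measured by pull-down and western blot; inactive means complex breakup under 10%.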
Target: Hsp90 co-chaperone Cdc37 (Homo sapiens) (UniProt Q16543)
Assay: disruption of Hsp90-CDC37 complex, late-stage follow-up, mechanism study for selective HSP90 inhibitor project, cell-based, chemiluminescence western blot, co-immunoprecipitation (AID 687006)
Settings: MCF7 cells, Hsp90 co-IP CDC37 western blot, 24 h, hits give high values

Sequence of Hsp90 co-chaperone Cdc37 (Homo sapiens) (Q16543 whole entry, looked up): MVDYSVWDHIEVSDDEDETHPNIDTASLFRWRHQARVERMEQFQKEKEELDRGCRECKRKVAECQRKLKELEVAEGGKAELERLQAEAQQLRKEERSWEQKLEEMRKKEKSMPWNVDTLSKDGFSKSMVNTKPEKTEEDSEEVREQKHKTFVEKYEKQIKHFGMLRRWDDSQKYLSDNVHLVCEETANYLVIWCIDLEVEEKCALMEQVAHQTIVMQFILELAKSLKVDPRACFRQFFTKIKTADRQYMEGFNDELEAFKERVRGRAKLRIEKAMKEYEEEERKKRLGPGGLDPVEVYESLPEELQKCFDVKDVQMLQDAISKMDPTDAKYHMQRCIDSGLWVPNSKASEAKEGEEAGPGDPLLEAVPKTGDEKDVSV

CC(=O)c1ccc(NC(=O)c2coc(=O)c(Br)c2)cc1
complex disruption (high dose (five times the growth IC50) 53.5 µM, low dose (half the growth IC50) 5.4 µM): > 50%

CC(C)CNC(=O)c1coc(=O)c(Br)c1
complex disruption (high dose (five times the growth IC50) 37.5 µM, low dose (half the growth IC50) 3.8 µM): > 50%

O=C(NCc1cccnc1)c1coc(=O)c(Br)c1
complex disruption (high dose (five times the growth IC50) 17.5 µM, low dose (half the growth IC50) 1.8 µM): < 10% (inactive)

O=C(NCc1ccco1)c1coc(=O)c(Br)c1
complex disruption (high dose (five times the growth IC50) 24 µM, low dose (half the growth IC50) 2.4 µM): < 10% (inactive)

O=C(Nc1ccc(F)cc1)c1coc(=O)c(Br)c1
complex disruption (high dose (five times the growth IC50) 17 µM, low dose (half the growth IC50) 1.7 µM): < 10% (inactive)

CCCCCCCCOc1ccc(NC(=O)c2coc(=O)c(Br)c2)cc1
complex disruption (high dose (five times the growth IC50) 64.5 µM, low dose (half the growth IC50) 6.5 µM): > 50%

Cc1cc(NC(=O)c2coc(=O)c(Br)c2)ccc1C(C)C
complex disruption (high dose (five times the growth IC50) 44.5 µM, low dose (half the growth IC50) 4.5 µM): < 10% (inactive)

O=C(Nc1ccccc1I)c1coc(=O)c(Br)c1
complex disruption (high dose (five times the growth IC50) 147 µM, low dose (half the growth IC50) 14.7 µM): < 10% (inactive)

CC(NC(=O)c1coc(=O)c(Br)c1)C1C2CCC3CC(C2)CC31 (centres undefined)
complex disruption (high dose (five times the growth IC50) 9 µM, low dose (half the growth IC50) 0.9 µM): < 10% (inactive)

Cc1cccc(NC(=O)c2coc(=O)c(Br)c2)n1
complex disruption (high dose (five times the growth IC50) 136.5 µM, low dose (half the growth IC50) 13.7 µM): < 10% (inactive)

COc1ccc(NC(=O)c2ccc(NC(=O)c3coc(=O)c(Br)c3)cc2)cc1
complex disruption (high dose (five times the growth IC50) 60.5 µM, low dose (half the growth IC50) 6.1 µM): > 50%

CCCCOc1cccc(NC(=O)c2coc(=O)c(Br)c2)c1
complex disruption (high dose (five times the growth IC50) 114 µM, low dose (half the growth IC50) 11.4 µM): < 10% (inactive)

O=C(NCCc1ccc(F)cc1)c1coc(=O)c(Br)c1
complex disruption (high dose (five times the growth IC50) 10.5 µM, low dose (half the growth IC50) 1.1 µM): < 10% (inactive)

COc1ccc(NC(=O)c2coc(=O)c(Br)c2)cc1
complex disruption (high dose (five times the growth IC50) 12 µM, low dose (half the growth IC50) 1.2 µM): > 50%

— PubChem BioAssay AID687006 (The Scripps Research Institute Molecular Screening Center, 2013)
